Experimental data taken from ChEMBL document CHEMBL1201862, “PubChem BioAssay data set” (2004).
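Five concentrations, 48 hours, 96-well plates. The concentration for 50% growth inhibition is given as GI50.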 Calls of active or inactive are those of the source. Cut-off read from the data, not from the text of the source: active = GI50 up to about 1.1 µM and inactive = higher.

Key:
Assay in all cases: inhibition of tumour cell growth, NCI panel, 48 h
A498 = system: A498
A549 = system: A549
HCT-15 = system: HCT-15
HL-60 = system: HL-60
HT-29 = system: HT-29
LOX IMVI = system: LOX IMVI
Malme-3M = system: Malme-3M
NCI-H226 = system: NCI-H226
NCI-H460 = system: NCI-H460
OVCAR-5 = system: OVCAR-5
SF-539 = system: SF-539
SK-MEL-28 = system: SK-MEL-28
U-251 = system: U-251
UACC-257 = system: UACC-257
UO-31 = system: UO-31
OVCAR-8 = system: OVCAR-8

SMILES	GI50 (A498)	GI50 (A549)	GI50 (HCT-15) [µM]	GI50 (HL-60)	GI50 (HT-29)	GI50 (LOX IMVI)	GI50 (Malme-3M)	GI50 (NCI-H226)	GI50 (NCI-H460)	GI50 (OVCAR-5)	GI50 (SF-539)	GI50 (SK-MEL-28)	GI50 (U-251)	GI50 (UACC-257)	GI50 (UO-31)	GI50 (OVCAR-8)
COC(=O)/C(=N/NC(=O)C[N+](C)(C)C)C(C(=O)OC)C(=O)C(=O)Nc1ccc(F)cc1 (configuration not stated)	63.7 µM (inactive)	> 100 µM (inactive)	> 100	> 100 µM (inactive)	> 100 µM (inactive)	> 100 µM (inactive)	> 100 µM (inactive)	> 100 µM (inactive)	> 100 µM (inactive)	> 100 µM (inactive)	> 100 µM (inactive)	> 100 µM (inactive)	> 100 µM (inactive)	> 100 µM (inactive)	> 100 µM (inactive)	
CCOc1ccc(/N=C/c2cccc3cccnc23)cc1	> 100 µM (inactive)	> 100 µM (inactive)	38.2	25.6 µM (inactive)	> 100 µM (inactive)		> 100 µM (inactive)	> 100 µM (inactive)	> 100 µM (inactive)	> 100 µM (inactive)	> 100 µM (inactive)	> 100 µM (inactive)	> 100 µM (inactive)	> 100 µM (inactive)		> 100 µM (inactive)
CC1(C)OC(COCCOCCCCCO)C(COCCOCCCCCO)O1 (configuration not stated)	> 100 µM (inactive)	> 100 µM (inactive)	> 100	> 10 µM (inactive)	> 100 µM (inactive)	> 100 µM (inactive)	> 100 µM (inactive)	> 100 µM (inactive)	> 100 µM (inactive)	> 100 µM (inactive)		> 100 µM (inactive)	> 100 µM (inactive)	> 100 µM (inactive)	> 100 µM (inactive)	> 100 µM (inactive)
C=CCN(N=O)C(=O)N(CCC)CCCC(NC(C)=O)C(=O)NCc1ccccc1 (configuration not stated)	> 100 µM (inactive)	> 100 µM (inactive)	> 100	> 100 µM (inactive)	> 100 µM (inactive)	> 100 µM (inactive)	> 100 µM (inactive)		> 100 µM (inactive)	> 100 µM (inactive)	> 100 µM (inactive)	> 100 µM (inactive)	> 100 µM (inactive)	> 100 µM (inactive)	> 100 µM (inactive)	> 100 µM (inactive)
Cc1cc(Cl)ccc1NC(=O)CCCC(=O)C1CCC/C1=N\NC(=O)CC#N (configuration not stated)	> 100 µM (inactive)	> 100 µM (inactive)	> 100	> 100 µM (inactive)	> 100 µM (inactive)		> 100 µM (inactive)	> 100 µM (inactive)	> 100 µM (inactive)	> 100 µM (inactive)	> 100 µM (inactive)	> 100 µM (inactive)	> 100 µM (inactive)	> 100 µM (inactive)	> 100 µM (inactive)	> 100 µM (inactive)
CN(C)C(c1ccccc1)C(O)c1ccccc1 (configuration not stated)	> 100 µM (inactive)	> 100 µM (inactive)	> 100	> 100 µM (inactive)	> 100 µM (inactive)	> 100 µM (inactive)	> 100 µM (inactive)	> 100 µM (inactive)	> 100 µM (inactive)		> 100 µM (inactive)	> 100 µM (inactive)	> 100 µM (inactive)	> 100 µM (inactive)	> 100 µM (inactive)	
COc1ccc2c(c1)[n+]([O-])c(-c1ccc(Br)cc1)c(N)[n+]2[O-]	> 100 µM (inactive)	32.1 µM (inactive)		21.1 µM (inactive)	44.4 µM (inactive)		25.2 µM (inactive)	66.5 µM (inactive)	36.3 µM (inactive)	60 µM (inactive)	36.1 µM (inactive)	23.2 µM (inactive)	37.4 µM (inactive)	32.4 µM (inactive)	80.2 µM (inactive)	37.2 µM (inactive)
